Experimental data: ChEMBL document CHEMBL1141837, “New steroidal alkaloids from the roots of buxus sempervirens” (1999)
Active and inactive are the calls of the source. The calls are words filed in the database; no cut-off is given here.

Assays:
Format in all cases: functional
Lemna minor [1] = assay: Phytotoxicity against Lemna minor L. at 500 ppm
Lemna minor [2] = assay: Phytotoxicity against Lemna minor L. at 5 ppm
Lemna minor [3] = assay: Phytotoxicity against Lemna minor L. at 50 ppm

| SMILES | Activity (Lemna minor [1]) | Activity (Lemna minor [2]) | Activity (Lemna minor [3]) |
| --- | --- | --- | --- |
| CC(=O)O[C@H]1C[C@@H]2[C@@]3(CC4=C[C@@H](OC(C)=O)[C@H](NC(=O)c5ccccc5)C(C)(C)[C@@H]41)O[C@H]3C[C@]1(C)[C@@H]([C@H](C)N(C)C)CC[C@@]21C | 86% | 57% | 71% |
| CN[C@H]1CC[C@]23C[C@]24CC[C@]2(C)C(=O)CC[C@@]2(C)[C@@H]4CC[C@H]3C1(C)C | inactive | inactive | inactive |
| CC(=O)O[C@H]1C[C@@H]2[C@H](CC[C@]3(C)[C@@H]([C@H](C)N(C)C)CC[C@@]23C)CC2=C[C@@H](O)[C@H](NC(=O)c3ccccc3)C(C)(C)[C@@H]21 | inactive | inactive | inactive |
| CC(=O)O[C@H]1C[C@@H]2[C@@]3(CC4=C[C@@H](O)[C@H](NC(=O)c5ccccc5)C(C)(C)[C@@H]41)O[C@H]3C[C@]1(C)[C@@H]([C@H](C)N(C)C)CC[C@@]21C | 86% | 57% | 57% |
| C[C@@H]([C@H]1CC[C@@]2(C)[C@@H]3CC[C@@H]4C(=CC3=CC[C@]12C)CC[C@H](N)C4(C)C)N(C)C | inactive | inactive | inactive |
